Test results: patent US20030215930A1, “Genes involved in cyclododecanone degradation pathway” (priority 2002, published 2003)

Assays:
Rhodococcus ruber SC1 = experiment: Growth of Rhodococcus ruber SC1 on cyclic ketones as sole carbon and energy source; assay type: cell-based; details: cyclic ketone as sole carbon and energy source
Experimental: Synthetic S12 medium was used to establish enrichment. S12 medium contains the following: 10 mM ammonium sulfate, 50 mM potassium phosphate buffer (pH 7.0), 2 mM MgCl2, 0.7 mM CaCl2, 50 μM MnCl2, 1 μM FeCl3, 1 μM […], 1.72 μM CuSO4, 2.53 μM CoCl2, 2.42 μM […], and 0.0001% FeSO4. The carbon sources were added directly to the S12 medium and the bacteria were grown in sealed culture flasks.
S12 agar was used to test isolates that utilize compounds as the sole source of carbon and energy. S12 agar was prepared by adding 1.5% Noble agar (DIFCO) to S12 medium. Bacteria growing on S12 agar were supplied with volatile compounds such as cyclododecanone by sprinkling solids of the volatile compound on the interior of the petri dish lid or 5 μl of other volatile liquid as vapor. The petri dish was sealed with parafilm and incubated with the lid on the bottom.
Rhodococcus ruber SC1 isolated from cyclododecanone (C12 cyclic ketone) enrichment culture was also tested for growth on cyclic ketones of different carbon numbers as sole carbon and energy source (Table 3). It grows well on cyclopentadecanone (C15 cyclic ketone), cyclotridecanone (C13 cyclic ketone), cyclododecanone (C12 cyclic ketone) and cycloundecanone (C11 cyclic ketone).

[1] = system: monooxygenase and esterase on the S8C; experiment: Production of different chain length hydroxy acids from cyclic ketones by recombinant E. coli cosmid clone S8C (GC/MS); assay type: cell-based, Escherichia coli; details: cyclic ketone substrate at 250 mg/L
Experimental: Transformed XL1-Blue MR cells were grown in M9 medium with 0.4% glucose as sole carbon source. Substrate for conversion was added at early log phase (OD=0.2) and cells were allowed to grow at 30° C. for 20 additional hours. Cells were then frozen and thawed once, centrifiged, and supernatant was filtered through 0.2 μm filters. Filtrate was prepared for GC/MS analysis as described below.
Filtrate was first acidified to pH 2 using concentrated HCl. The acidified sample was extracted twice with methylene chloride or ethyl acetate. The extracts were combined and dried by adding anhydrous magnesium sulfate. Magnesium sulfate was then removed by filteration using Whatman 3MM filter paper and the remaining solvent in the filtrate was evaporated under a gentle stream of nitrogen. […]
Example 8 explores whether the cyclic substrates could be expanded to cyclic ketones of different chain length and whether corresponding hydroxy acids could be produced. […] Large amount of corresponding hydroxy acids were detected from S8C grown in the presence of C11, C12 and C13 cyclic ketones. Medium level of 15-hydroxy acid was detected from C15 cyclic ketone grown cells. Small amount of hydroxy acids was detected from cells grown on C6 and C10 cyclic ketones. […]

Structure (SMILES)	Growth of Rhodococcus ruber SC1 (Rhodococcus ruber SC1)	Corresponding Hydroxy Acid Produced by E. coli Cosmids [1]
O=C1CCCCCC1 [C7, cycloheptanone]	does not grow	
O=C1CCCCCCCCC1 [C10, cyclodecanone]	grows moderately well	Small amount
O=C1CCCCCCC1 [C8, cyclooctanone]	does not grow	
O=C1CCCCCCCCCCC1 [C12, cyclododecanone]	grows well	
O=C1CCCCC1 [C6, cyclohexanone]	does not grow	Small amount
O=C1CCCCCCCCCC1 [C11, cycloundecanone]	grows well	
O=C1CCCCCCCCCCCC1 [C13, cyclotridecanone]	grows well	
O=C1CCCCCCCCCCCCCC1 [C15, cyclopentadecanone]	grows well	
